Results as given in ChEMBL document CHEMBL1201862, “PubChem BioAssay data set” (2004).
Activity calls are given as the source filed them.

How the values were obtained:
[1] = reduction of Shn3 3'UTR-driven luciferase in osteoblasts – cell-based, Clone20 osteoblasts, firefly luciferase, cherry-picked, dose response (AID 624132); assay type: functional;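 note: firefly luciferase luminescence from reporter carrying the Shn3 3'UTR in osteoblasts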
[2] = decrease of insulin promoter-GFP reporter – imaging, high-content screening, mouse beta cells (AID 1628); assay type: functional; conditions: MIN6
[3] = non-specific 3'UTR reporter inhibition in Clone20-Shn3RL – cell-based, Renilla luciferase, cherry-picked, counter-screen for Shn3 inhibitor project, dose response (AID 624133); assay type: functional
[4] = MIN6 cell viability loss – mouse insulinoma, cytotoxicity control, dose response (AID 2122); assay type: functional;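 note: confirmatory high-throughput counterscreen run to flag cytotoxic compounds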
[5] = loss of viability in HepG2 cells – cell-based, CellTiter-Glo, cherry-picked, cytotoxicity control for Shn3 inhibitor project, dose response (AID 624134); assay type: functional
[6] = molecular target: T1, Cytochrome P450 3A4 (Homo sapiens, UniProt P08684);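 note: CYP3A4 tested as one member of a cytochrome P450 panel screen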
[7] = molecular target: T2, Cytochrome P450 1A2 (Homo sapiens, UniProt P05177);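 note: PubChem cytochrome P450 panel assay, CYP1A2 panel member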
T2 sequence (P05177 whole entry): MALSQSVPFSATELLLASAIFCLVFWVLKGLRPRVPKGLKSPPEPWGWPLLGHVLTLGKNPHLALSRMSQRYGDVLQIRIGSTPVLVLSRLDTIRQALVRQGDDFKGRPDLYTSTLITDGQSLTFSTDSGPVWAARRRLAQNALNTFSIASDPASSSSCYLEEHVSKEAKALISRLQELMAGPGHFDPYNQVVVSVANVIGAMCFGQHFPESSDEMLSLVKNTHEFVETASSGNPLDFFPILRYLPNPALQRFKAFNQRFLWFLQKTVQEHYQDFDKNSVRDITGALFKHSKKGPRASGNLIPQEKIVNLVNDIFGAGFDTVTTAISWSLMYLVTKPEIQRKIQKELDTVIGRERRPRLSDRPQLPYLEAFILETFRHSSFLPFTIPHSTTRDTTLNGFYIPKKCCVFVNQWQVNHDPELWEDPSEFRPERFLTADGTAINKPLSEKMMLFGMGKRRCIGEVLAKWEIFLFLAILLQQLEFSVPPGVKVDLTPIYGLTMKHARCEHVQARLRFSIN

[8] = molecular target: T3, Adenosylmethionine-8-amino-7-oxononanoate aminotransferase (Mycobacterium tuberculosis, UniProt P9WQ81); experiment: Mycobacterium tuberculosis BioA enzyme inhibitor Measured in Biochemical System Using Plate Reader - 2163-02_Inhibitor_Dose_CherryPick_Activity.; assay type: functional, Mycobacterium tuberculosis UT205
T3 sequence (P9WQ81 whole entry): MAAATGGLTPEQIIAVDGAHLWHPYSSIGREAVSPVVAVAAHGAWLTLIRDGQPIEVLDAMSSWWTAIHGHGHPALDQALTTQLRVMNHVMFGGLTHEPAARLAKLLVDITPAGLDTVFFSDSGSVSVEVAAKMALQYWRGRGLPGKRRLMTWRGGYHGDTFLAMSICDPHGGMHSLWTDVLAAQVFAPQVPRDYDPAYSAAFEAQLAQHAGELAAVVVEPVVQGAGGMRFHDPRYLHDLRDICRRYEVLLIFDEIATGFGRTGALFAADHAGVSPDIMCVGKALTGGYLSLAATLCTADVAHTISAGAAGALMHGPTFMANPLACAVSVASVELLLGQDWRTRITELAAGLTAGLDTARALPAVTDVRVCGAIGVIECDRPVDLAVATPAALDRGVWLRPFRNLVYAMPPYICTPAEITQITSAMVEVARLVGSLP

[9] = NIH3T3 cell viability loss – ATP luminescence, mouse fibroblasts, counter-screen, dose response (AID 2010); assay type: functional, cell-based;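 note: cells exposed to compound for about 90 hours before reading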
[10] = NIH-3T3 fibroblast cytotoxicity, dose response, cytotoxicity control, cell-based, fluorescence, Alamar Blue, secondary assay (AID 2327); assay type: functional;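 note: NIH-3T3 mouse fibroblasts cultured with fluconazole at 8 µg/mL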
[11] = fluconazole-exposed Candida albicans growth modulators – fluorescence, retest, confirmation (AID 2467); assay type: functional, cell-based
[12] = Trypanosoma cruzi growth suppression in host cells – NIH3T3 host cells, beta-gal luminescence, confirmation (AID 2044); assay type: functional, cell-based;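 note: intracellular parasites grown in NIH/3T3 mouse fibroblasts as host cells; luminescent beta-galactosidase reporter signal from transgenic T. cruzi replicating inside host cells; inhibitors lower the luminescence signal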
[13] = molecular target: Cytochrome P450 2C9 (Homo sapiens, UniProt P11712)
[14] = molecular target: T1, Cytochrome P450 3A4; remark: listed apart in the source
[15] = THP-1 cell cytotoxicity, dose response, cytotoxicity control for non-replicating M. tuberculosis project (AID 489025); assay type: functional
[16] = cells; assay type: functional
[17] = Vero E6 cell cytotoxicity, dose response, cytotoxicity control for non-replicating M. tuberculosis project, secondary assay (AID 492998); assay type: functional, VeroE6; conditions: Vero C1008
[18] = blockade of melanocortin 4 receptor signaling – cell-based, plate reader, cherry pick, counter-screen for LGR2 antagonist project, dose response (AID 743444); assay type: functional;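 note: transfected HEK 293 cells stimulated with alpha-MSH peptide; potency of inhibitors of the alpha-MSH evoked signal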
[19] = blockers of bursicon-stimulated LGR2 cAMP reporter – cell-based, HEK293, CRE-luciferase reporter, cherry pick, set 2, dose response (AID 743343); assay type: functional;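 note: transfected cells were stimulated with diluted bursicon conditioned medium after compound addition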
[20] = molecular target: Cytochrome P450 2D6 (Homo sapiens, UniProt P10635);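 note: CYP2D6 member of a cytochrome P450 panel assay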
[21] = cells; assay type: functional, cell-based
[22] = cells; assay type: functional, cell-based; remark: listed apart in the source
[23] = system: INS1; experiment: INS-1E survival protection against cytokine death – cell-based, luminescence, retest, dose response (AID 449756); assay type: functional; conditions: Rattus norvegicus;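 note: cell death triggered by IL-1 beta plus TNF-alpha plus IFN-gamma mixture; protective hits raise ATP signal compared with cytokine alone wells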

T1 sequence (P08684 whole entry): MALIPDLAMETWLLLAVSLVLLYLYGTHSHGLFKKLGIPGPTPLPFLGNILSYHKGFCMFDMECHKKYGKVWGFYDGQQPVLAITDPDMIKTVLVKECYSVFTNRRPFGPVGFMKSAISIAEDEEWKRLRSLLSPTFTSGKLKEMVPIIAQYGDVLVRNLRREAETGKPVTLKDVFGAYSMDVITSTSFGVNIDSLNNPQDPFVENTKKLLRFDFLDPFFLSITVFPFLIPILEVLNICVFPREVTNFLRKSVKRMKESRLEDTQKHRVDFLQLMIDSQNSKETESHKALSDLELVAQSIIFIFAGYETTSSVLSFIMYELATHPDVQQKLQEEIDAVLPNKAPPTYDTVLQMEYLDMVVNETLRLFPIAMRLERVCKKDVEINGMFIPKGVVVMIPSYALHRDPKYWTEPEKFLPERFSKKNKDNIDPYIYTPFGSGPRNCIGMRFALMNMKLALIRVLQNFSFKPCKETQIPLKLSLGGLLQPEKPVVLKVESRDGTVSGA
Cytochrome P450 2C9, sequence (P11712 whole entry): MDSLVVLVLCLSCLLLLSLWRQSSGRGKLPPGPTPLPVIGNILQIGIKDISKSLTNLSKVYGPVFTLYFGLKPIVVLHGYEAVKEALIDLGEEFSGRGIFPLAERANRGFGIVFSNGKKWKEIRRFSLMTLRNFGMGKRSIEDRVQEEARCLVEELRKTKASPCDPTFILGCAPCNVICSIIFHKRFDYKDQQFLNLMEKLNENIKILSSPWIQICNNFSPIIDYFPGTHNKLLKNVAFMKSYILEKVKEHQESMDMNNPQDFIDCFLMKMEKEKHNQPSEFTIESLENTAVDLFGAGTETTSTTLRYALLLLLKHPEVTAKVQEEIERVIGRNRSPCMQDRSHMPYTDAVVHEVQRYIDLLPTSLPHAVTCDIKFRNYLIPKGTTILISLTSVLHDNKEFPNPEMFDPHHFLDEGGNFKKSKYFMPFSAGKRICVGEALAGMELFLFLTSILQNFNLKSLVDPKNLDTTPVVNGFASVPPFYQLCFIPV
Cytochrome P450 2D6, sequence (P10635 whole entry): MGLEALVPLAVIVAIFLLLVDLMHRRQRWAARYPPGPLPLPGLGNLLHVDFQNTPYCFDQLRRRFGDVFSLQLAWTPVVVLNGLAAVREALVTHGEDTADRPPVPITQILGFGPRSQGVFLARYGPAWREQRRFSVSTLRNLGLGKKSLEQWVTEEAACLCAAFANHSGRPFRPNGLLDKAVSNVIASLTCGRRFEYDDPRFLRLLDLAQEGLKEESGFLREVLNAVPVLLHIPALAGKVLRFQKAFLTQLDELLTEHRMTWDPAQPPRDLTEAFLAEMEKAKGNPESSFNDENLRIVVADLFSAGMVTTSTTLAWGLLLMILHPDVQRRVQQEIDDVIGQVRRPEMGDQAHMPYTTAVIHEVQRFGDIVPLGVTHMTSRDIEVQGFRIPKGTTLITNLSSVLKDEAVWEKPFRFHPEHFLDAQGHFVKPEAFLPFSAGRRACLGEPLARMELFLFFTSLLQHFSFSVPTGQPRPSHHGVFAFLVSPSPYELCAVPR

With `Cn1c(=O)n(C)c2cc([N+](=O)[O-])c(N3CCN(S(=O)(=O)c4ccc(C(C)(C)C)cc4)CC3)cc21` the AC50 [1] was 3.53 µM (active), the IC50 [2] was 2.73 µM (active) and the AC50 [3] was 9.33 µM (active). The IC50 [4] was 4.02 µM (active) and the AC50 [5] was > 70 µM (inactive).

With `CCS(=O)(=O)N1CCN(c2c(Cl)cccc2[N+](=O)[O-])CC1` the AC50 [6] was “inconclusive” and the AC50 [7] was 15.8 µM (inconclusive).

With `Cc1nc2nc(SCC(=O)NCCCN3CCOCC3)nn2c(C)c1Cc1ccccc1` the AC50 [8] was 5.43 µM (active).

For `C(#Cc1ccccc1)C[N+]1(CC#Cc2ccccc2)CCCCC1`, the IC50 [2] was < 0.25 µM (active), the EC50 [9] was > 60 µM (not active) and the EC50 [10] was > 160 µM (inactive). The IC50 [4] was < 0.25 µM (active), the EC50 [11] was > 38 µM (not active) and the EC50 [12] was 1.88 µM (active).

With `O=c1[nH]n(-c2cccc3cccnc23)c(=O)c2ccccc12` the AC50 [13] was “inconclusive”, the AC50 [14] was 25.1 µM (inconclusive) and the AC50 [7] was 6.31 µM (inconclusive).

With `O=C(c1cccc(F)c1)N1CCC2(CC1)CCN(c1ccccc1)CC2` the AC50 [6] was “inconclusive”.

For `Cc1cc(C(=O)CSc2nc3ccccc3[nH]2)c(C)n1Cc1ccco1`, the IC50 [2] was 1.93 µM (active) and the IC50 [4] was 1.29 µM (active).

For `Cc1cc(C)c2nc(N=C(N)NC(=O)Nc3ccccc3)nc(C)c2c1`, the CC50 [15] was > 40 µM (active), the IC50 [16] was 8.18 µM (active) and the CC50 [17] was > 20 µM (active).

In the case of `Cc1ccc(-c2nn3c(C)nnc3s2)cc1NCc1c(F)cccc1Cl`, the IC50 [2] is reported as 3.44 µM (active) and the IC50 [4] is reported as 5.76 µM (active).

In the case of `CC(Oc1ccc2c(-c3ccccc3)cc(=O)oc2c1)C(=O)NCc1ccccn1` (centres undefined), the AC50 [8] is reported as 8.99 µM (active).

With `COc1ccc(C(=O)N2CCC3(CC2)CCN(c2ccccc2)CC3)cc1` the AC50 [6] was “inconclusive”.

In the case of `CCOc1ccc(C(=O)N/N=C(/C)C2C(=O)c3ccccc3C2=O)cc1`, the CC50 [15] is reported as > 40 µM (active) and the CC50 [17] is reported as > 20 µM (active).

With `O=S(=O)(c1cccc2nsnc12)N1CCCC1` the AC50 [6] was “inconclusive” and the AC50 [7] was 14.1 µM (inconclusive).

With `Cc1ccc(-c2nnc(-c3ccccc3Br)o2)cc1` the AC50 [18] was 20.3 µM (active) and the AC50 [19] was 14.3 µM (active).

For `CC(C)(C)n1ncc2c(=O)n(CC(=O)NCc3ccccc3Cl)cnc21`, the AC50 [20] was 11.2 µM (inconclusive) and the AC50 [13] was “inconclusive”.

In the case of `CC1=C(CC[C@H](C)CO)O[C@@H]2C[C@@H]3[C@H]4CC[C@H]5C[C@@H](O)CC[C@]5(C)[C@@H]4CC(=O)[C@@]3(C)[C@@H]12`, the AC50 [6] is reported as “inconclusive”.

With `COc1ccc(/C=N/NC(=O)c2nc(-c3ccccc3)n(-c3ccccc3)n2)c(O)c1` the EC50 [21] was > 350 µM (not active), the EC50 [22] was 10.1 µM (active) and the AC50 [23] was 1.47 µM (active).
